# Molecular target: Epidermal growth factor receptor (Homo sapiens, UniProt P00533)
# Assay: Inhibition of EGFR (unknown origin) by Z -LYTE assay
row,Structure (SMILES),IC50 [nM]
1,COc1cc(CO)ccc1-c1cc2c(Nc3ccc(F)c(Cl)c3)ncnc2s1,2

# Molecular target: Tyrosine-protein kinase ABL1 (Homo sapiens) (UniProt P00519)
# Assay: Inhibition of ABL1 (unknown origin) at 500 nM
row,Structure (SMILES),inhibition [%]
1,C#Cc1cccc(Nc2ncnc3cc(OCCOC)c(OCCOC)cc23)c1 [ERLOTINIB],75
2,COc1cc(CO)ccc1-c1cc2c(Nc3ccc(F)c(Cl)c3)ncnc2s1,19
3,COc1cc(CO)ccc1-c1cc2c(N[C@H](CO)c3ccccc3)ncnc2s1,22
4,COc1cc(CO)ccc1-c1cc2c(N[C@H](C)c3ccccc3)ncnc2s1,7

# Molecular target: Aurora kinase B (Homo sapiens) (UniProt Q96GD4)
# Assay: Inhibition of AURKB (unknown origin) at 500 nM
# Aurora kinase B (Homo sapiens), sequence (Q96GD4 whole entry): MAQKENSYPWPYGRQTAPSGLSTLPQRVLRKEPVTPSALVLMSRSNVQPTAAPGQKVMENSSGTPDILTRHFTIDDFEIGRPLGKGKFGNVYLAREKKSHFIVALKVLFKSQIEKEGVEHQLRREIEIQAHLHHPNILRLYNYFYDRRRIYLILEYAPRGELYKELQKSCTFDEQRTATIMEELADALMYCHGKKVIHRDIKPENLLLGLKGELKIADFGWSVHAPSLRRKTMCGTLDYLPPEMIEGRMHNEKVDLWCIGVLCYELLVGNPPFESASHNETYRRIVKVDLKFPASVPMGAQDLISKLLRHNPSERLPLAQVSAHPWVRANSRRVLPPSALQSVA
row,Structure (SMILES),inhibition [%]
1,C#Cc1cccc(Nc2ncnc3cc(OCCOC)c(OCCOC)cc23)c1 [ERLOTINIB],44
2,COc1cc(CO)ccc1-c1cc2c(Nc3ccc(F)c(Cl)c3)ncnc2s1,7
3,COc1cc(CO)ccc1-c1cc2c(N[C@H](CO)c3ccccc3)ncnc2s1,10
4,COc1cc(CO)ccc1-c1cc2c(N[C@H](C)c3ccccc3)ncnc2s1,1

# Molecular target: Serine/threonine-protein kinase B-raf (Homo sapiens) (UniProt P15056)
# Assay: Inhibition of BRAF (unknown origin) at 500 nM
row,Structure (SMILES),inhibition [%]
1,COc1cc(CO)ccc1-c1cc2c(Nc3ccc(F)c(Cl)c3)ncnc2s1,3
2,COc1cc(CO)ccc1-c1cc2c(N[C@H](CO)c3ccccc3)ncnc2s1,20
3,COc1cc(CO)ccc1-c1cc2c(N[C@H](C)c3ccccc3)ncnc2s1,1

# Molecular target: T1, Serine/threonine-protein kinase Chk1 (Homo sapiens) (UniProt O14757)
# T1 sequence (whole entry): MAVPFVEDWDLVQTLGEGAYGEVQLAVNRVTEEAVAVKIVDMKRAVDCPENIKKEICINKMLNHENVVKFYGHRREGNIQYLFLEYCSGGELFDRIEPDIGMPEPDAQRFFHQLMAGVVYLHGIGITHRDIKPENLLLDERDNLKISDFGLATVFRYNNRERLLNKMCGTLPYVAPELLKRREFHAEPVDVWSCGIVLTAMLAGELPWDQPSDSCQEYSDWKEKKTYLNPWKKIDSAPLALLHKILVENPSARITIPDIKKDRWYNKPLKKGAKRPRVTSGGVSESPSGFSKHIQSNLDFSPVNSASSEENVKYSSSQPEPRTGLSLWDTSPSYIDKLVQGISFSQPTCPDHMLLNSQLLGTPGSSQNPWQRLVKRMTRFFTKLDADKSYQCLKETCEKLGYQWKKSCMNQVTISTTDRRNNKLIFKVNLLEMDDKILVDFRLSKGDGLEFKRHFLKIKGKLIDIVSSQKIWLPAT
# Assay: Inhibition of CHEK1 (unknown origin) at 500 nM
row,Structure (SMILES),inhibition [%]
1,C#Cc1cccc(Nc2ncnc3cc(OCCOC)c(OCCOC)cc23)c1 [ERLOTINIB],-7
2,COc1cc(CO)ccc1-c1cc2c(N[C@H](CO)c3ccccc3)ncnc2s1,15
3,COc1cc(CO)ccc1-c1cc2c(N[C@H](C)c3ccccc3)ncnc2s1,1

# Molecular target: Macrophage colony-stimulating factor 1 receptor (Homo sapiens) (UniProt P07333)
# Assay: Inhibition of CSF1R (unknown origin) at 500 nM
row,Structure (SMILES),inhibition [%]
1,C#Cc1cccc(Nc2ncnc3cc(OCCOC)c(OCCOC)cc23)c1 [ERLOTINIB],38
2,COc1cc(CO)ccc1-c1cc2c(Nc3ccc(F)c(Cl)c3)ncnc2s1,4
3,COc1cc(CO)ccc1-c1cc2c(N[C@H](CO)c3ccccc3)ncnc2s1,3
4,COc1cc(CO)ccc1-c1cc2c(N[C@H](C)c3ccccc3)ncnc2s1,2

# Molecular target: Tyrosine-protein kinase CSK (Homo sapiens) (UniProt P41240)
# Assay: Inhibition of CSK (unknown origin) at 500 nM
row,Structure (SMILES),inhibition [%]
1,C#Cc1cccc(Nc2ncnc3cc(OCCOC)c(OCCOC)cc23)c1 [ERLOTINIB],8
2,COc1cc(CO)ccc1-c1cc2c(Nc3ccc(F)c(Cl)c3)ncnc2s1,15
3,COc1cc(CO)ccc1-c1cc2c(N[C@H](CO)c3ccccc3)ncnc2s1,5
4,COc1cc(CO)ccc1-c1cc2c(N[C@H](C)c3ccccc3)ncnc2s1,7

# Molecular target: Tyrosine-protein kinase Fer (Homo sapiens) (UniProt P16591)
# Assay: Inhibition of FER (unknown origin) at 500 nM
row,Structure (SMILES),inhibition [%]
1,C#Cc1cccc(Nc2ncnc3cc(OCCOC)c(OCCOC)cc23)c1 [ERLOTINIB],-1
2,COc1cc(CO)ccc1-c1cc2c(Nc3ccc(F)c(Cl)c3)ncnc2s1,-1
3,COc1cc(CO)ccc1-c1cc2c(N[C@H](CO)c3ccccc3)ncnc2s1,8
4,COc1cc(CO)ccc1-c1cc2c(N[C@H](C)c3ccccc3)ncnc2s1,10

# Molecular target: Fibroblast growth factor receptor 1 (Homo sapiens) (UniProt P11362)
# Assay: Inhibition of FGFR1 (unknown origin) at 500 nM
row,Structure (SMILES),inhibition [%]
1,C#Cc1cccc(Nc2ncnc3cc(OCCOC)c(OCCOC)cc23)c1 [ERLOTINIB],-4
2,COc1cc(CO)ccc1-c1cc2c(Nc3ccc(F)c(Cl)c3)ncnc2s1,-7
3,COc1cc(CO)ccc1-c1cc2c(N[C@H](CO)c3ccccc3)ncnc2s1,4
4,COc1cc(CO)ccc1-c1cc2c(N[C@H](C)c3ccccc3)ncnc2s1,1

# Molecular target: Tyrosine-protein kinase Fgr (Homo sapiens) (UniProt P09769)
# Assay: Inhibition of FGR (unknown origin) at 500 nM
# Tyrosine-protein kinase Fgr (Homo sapiens), sequence (P09769 2-529 limits assumed): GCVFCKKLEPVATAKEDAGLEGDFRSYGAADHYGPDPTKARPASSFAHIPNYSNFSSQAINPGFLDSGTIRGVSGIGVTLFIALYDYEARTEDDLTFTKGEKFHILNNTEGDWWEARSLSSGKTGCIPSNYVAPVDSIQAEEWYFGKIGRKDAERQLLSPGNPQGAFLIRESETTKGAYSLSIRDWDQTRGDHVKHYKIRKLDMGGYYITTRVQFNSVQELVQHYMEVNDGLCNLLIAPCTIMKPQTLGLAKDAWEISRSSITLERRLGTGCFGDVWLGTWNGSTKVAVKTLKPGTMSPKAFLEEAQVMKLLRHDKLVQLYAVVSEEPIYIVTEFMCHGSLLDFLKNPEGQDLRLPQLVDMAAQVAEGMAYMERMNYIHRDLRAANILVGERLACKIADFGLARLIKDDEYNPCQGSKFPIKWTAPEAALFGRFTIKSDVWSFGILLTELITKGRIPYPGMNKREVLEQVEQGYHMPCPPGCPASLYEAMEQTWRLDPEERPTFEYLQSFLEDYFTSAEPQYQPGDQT
row,Structure (SMILES),inhibition [%]
1,C#Cc1cccc(Nc2ncnc3cc(OCCOC)c(OCCOC)cc23)c1 [ERLOTINIB],42
2,COc1cc(CO)ccc1-c1cc2c(Nc3ccc(F)c(Cl)c3)ncnc2s1,11
3,COc1cc(CO)ccc1-c1cc2c(N[C@H](CO)c3ccccc3)ncnc2s1,58
4,COc1cc(CO)ccc1-c1cc2c(N[C@H](C)c3ccccc3)ncnc2s1,40

# Molecular target: Vascular endothelial growth factor receptor 1 (Homo sapiens) (UniProt P17948)
# Assay: Inhibition of FLT1 (unknown origin) at 500 nM
row,Structure (SMILES),inhibition [%]
1,C#Cc1cccc(Nc2ncnc3cc(OCCOC)c(OCCOC)cc23)c1 [ERLOTINIB],17
2,COc1cc(CO)ccc1-c1cc2c(Nc3ccc(F)c(Cl)c3)ncnc2s1,2
3,COc1cc(CO)ccc1-c1cc2c(N[C@H](CO)c3ccccc3)ncnc2s1,1
4,COc1cc(CO)ccc1-c1cc2c(N[C@H](C)c3ccccc3)ncnc2s1,4

# Molecular target: Insulin-like growth factor 1 receptor (Homo sapiens) (UniProt P08069)
# Assay: Inhibition of IGF1R (unknown origin) at 500 nM
row,Structure (SMILES),inhibition [%]
1,COc1cc(CO)ccc1-c1cc2c(Nc3ccc(F)c(Cl)c3)ncnc2s1,-3

# Molecular target: Tyrosine-protein kinase JAK2 (Homo sapiens) (UniProt O60674)
# Assay: Inhibition of JAK2 (unknown origin) at 500 nM
row,Structure (SMILES),inhibition [%]
1,C#Cc1cccc(Nc2ncnc3cc(OCCOC)c(OCCOC)cc23)c1 [ERLOTINIB],25
2,COc1cc(CO)ccc1-c1cc2c(Nc3ccc(F)c(Cl)c3)ncnc2s1,-3
3,COc1cc(CO)ccc1-c1cc2c(N[C@H](CO)c3ccccc3)ncnc2s1,9
4,COc1cc(CO)ccc1-c1cc2c(N[C@H](C)c3ccccc3)ncnc2s1,7

# Molecular target: Mitogen-activated protein kinase 1 (Homo sapiens) (UniProt P28482)
# Assay: Inhibition of MAPK1 (unknown origin) at 500 nM
row,Structure (SMILES),inhibition [%]
1,COc1cc(CO)ccc1-c1cc2c(Nc3ccc(F)c(Cl)c3)ncnc2s1,6
2,COc1cc(CO)ccc1-c1cc2c(N[C@H](CO)c3ccccc3)ncnc2s1,7
3,COc1cc(CO)ccc1-c1cc2c(N[C@H](C)c3ccccc3)ncnc2s1,1

# Molecular target: Mitogen-activated protein kinase 8 (Homo sapiens) (UniProt P45983)
# Assay: Inhibition of MAPK8 (unknown origin) at 500 nM
# Mitogen-activated protein kinase 8 (Homo sapiens), sequence (P45983 whole entry): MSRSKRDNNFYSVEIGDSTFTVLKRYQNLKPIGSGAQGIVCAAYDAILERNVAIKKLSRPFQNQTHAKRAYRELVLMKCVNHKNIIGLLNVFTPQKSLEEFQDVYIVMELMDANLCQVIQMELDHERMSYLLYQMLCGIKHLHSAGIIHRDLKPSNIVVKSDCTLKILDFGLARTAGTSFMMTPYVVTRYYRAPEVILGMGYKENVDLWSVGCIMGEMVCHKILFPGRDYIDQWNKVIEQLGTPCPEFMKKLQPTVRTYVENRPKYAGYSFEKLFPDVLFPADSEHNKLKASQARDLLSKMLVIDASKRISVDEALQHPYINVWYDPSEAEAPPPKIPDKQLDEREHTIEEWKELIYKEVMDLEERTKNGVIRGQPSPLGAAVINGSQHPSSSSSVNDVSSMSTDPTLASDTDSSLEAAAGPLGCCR
row,Structure (SMILES),inhibition [%]
1,COc1cc(CO)ccc1-c1cc2c(Nc3ccc(F)c(Cl)c3)ncnc2s1,14
2,COc1cc(CO)ccc1-c1cc2c(N[C@H](CO)c3ccccc3)ncnc2s1,14
3,COc1cc(CO)ccc1-c1cc2c(N[C@H](C)c3ccccc3)ncnc2s1,2

# Molecular target: MAP kinase-activated protein kinase 2 (Homo sapiens) (UniProt P49137)
# Assay: Inhibition of MAPKAPK2 (unknown origin) at 500 nM
row,Structure (SMILES),inhibition [%]
1,C#Cc1cccc(Nc2ncnc3cc(OCCOC)c(OCCOC)cc23)c1 [ERLOTINIB],-1
2,COc1cc(CO)ccc1-c1cc2c(Nc3ccc(F)c(Cl)c3)ncnc2s1,3
3,COc1cc(CO)ccc1-c1cc2c(N[C@H](CO)c3ccccc3)ncnc2s1,8
4,COc1cc(CO)ccc1-c1cc2c(N[C@H](C)c3ccccc3)ncnc2s1,1

# Molecular target: Platelet-derived growth factor receptor alpha (Homo sapiens) (UniProt P16234)
# Assay: Inhibition of PDGFRA (unknown origin) at 500 nM
# Platelet-derived growth factor receptor alpha (Homo sapiens), sequence (P16234 whole entry): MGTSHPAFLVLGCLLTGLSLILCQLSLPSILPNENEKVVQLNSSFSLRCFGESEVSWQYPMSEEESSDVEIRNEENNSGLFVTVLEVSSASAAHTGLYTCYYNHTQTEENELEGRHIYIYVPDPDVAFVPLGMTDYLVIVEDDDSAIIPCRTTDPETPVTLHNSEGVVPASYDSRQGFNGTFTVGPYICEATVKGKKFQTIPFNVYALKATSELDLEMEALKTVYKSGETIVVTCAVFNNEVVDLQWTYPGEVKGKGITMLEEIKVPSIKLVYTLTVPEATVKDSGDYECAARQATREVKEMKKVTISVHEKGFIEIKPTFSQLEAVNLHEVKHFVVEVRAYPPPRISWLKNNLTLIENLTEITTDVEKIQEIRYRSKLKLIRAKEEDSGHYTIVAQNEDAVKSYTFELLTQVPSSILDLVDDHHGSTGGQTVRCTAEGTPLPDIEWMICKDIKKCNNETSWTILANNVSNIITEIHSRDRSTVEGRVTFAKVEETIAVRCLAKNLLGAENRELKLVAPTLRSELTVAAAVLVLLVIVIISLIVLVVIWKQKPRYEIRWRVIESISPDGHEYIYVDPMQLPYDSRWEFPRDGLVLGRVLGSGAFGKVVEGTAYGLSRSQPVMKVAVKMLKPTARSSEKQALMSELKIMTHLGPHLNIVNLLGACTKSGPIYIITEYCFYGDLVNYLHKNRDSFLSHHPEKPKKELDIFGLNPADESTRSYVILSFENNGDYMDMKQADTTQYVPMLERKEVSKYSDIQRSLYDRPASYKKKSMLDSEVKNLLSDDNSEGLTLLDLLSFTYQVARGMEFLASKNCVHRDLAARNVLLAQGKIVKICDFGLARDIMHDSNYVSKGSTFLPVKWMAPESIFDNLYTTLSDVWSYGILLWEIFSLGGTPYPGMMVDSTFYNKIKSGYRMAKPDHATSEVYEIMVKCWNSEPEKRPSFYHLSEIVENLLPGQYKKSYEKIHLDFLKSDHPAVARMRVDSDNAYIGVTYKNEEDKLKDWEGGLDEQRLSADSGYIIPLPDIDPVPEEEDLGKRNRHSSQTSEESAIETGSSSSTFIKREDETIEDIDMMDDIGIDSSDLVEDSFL
row,Structure (SMILES),inhibition [%]
1,COc1cc(CO)ccc1-c1cc2c(Nc3ccc(F)c(Cl)c3)ncnc2s1,5
2,COc1cc(CO)ccc1-c1cc2c(N[C@H](CO)c3ccccc3)ncnc2s1,1
3,COc1cc(CO)ccc1-c1cc2c(N[C@H](C)c3ccccc3)ncnc2s1,1

# Molecular target: Serine/threonine-protein kinase pim-2 (Homo sapiens) (UniProt Q9P1W9)
# Assay: Inhibition of PIM2 (unknown origin) at 500 nM
# Serine/threonine-protein kinase pim-2 (Homo sapiens), sequence (Q9P1W9 whole entry, looked up): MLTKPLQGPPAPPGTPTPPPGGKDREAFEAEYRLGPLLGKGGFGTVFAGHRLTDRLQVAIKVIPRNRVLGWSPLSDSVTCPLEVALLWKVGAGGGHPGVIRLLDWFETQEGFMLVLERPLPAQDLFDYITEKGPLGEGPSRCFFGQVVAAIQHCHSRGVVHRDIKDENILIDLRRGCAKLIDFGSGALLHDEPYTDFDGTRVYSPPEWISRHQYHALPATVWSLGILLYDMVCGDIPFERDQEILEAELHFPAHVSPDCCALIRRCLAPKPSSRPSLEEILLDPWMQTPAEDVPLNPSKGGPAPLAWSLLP
row,Structure (SMILES),inhibition [%]
1,COc1cc(CO)ccc1-c1cc2c(Nc3ccc(F)c(Cl)c3)ncnc2s1,6
2,COc1cc(CO)ccc1-c1cc2c(N[C@H](CO)c3ccccc3)ncnc2s1,1
3,COc1cc(CO)ccc1-c1cc2c(N[C@H](C)c3ccccc3)ncnc2s1,1

# Molecular target: Serine/threonine-protein kinase PLK1 (Homo sapiens) (UniProt P53350)
# Assay: Inhibition of PLK1 (unknown origin) at 500 nM
row,Structure (SMILES),inhibition [%]
1,C#Cc1cccc(Nc2ncnc3cc(OCCOC)c(OCCOC)cc23)c1 [ERLOTINIB],-9
2,COc1cc(CO)ccc1-c1cc2c(Nc3ccc(F)c(Cl)c3)ncnc2s1,6
3,COc1cc(CO)ccc1-c1cc2c(N[C@H](CO)c3ccccc3)ncnc2s1,1
4,COc1cc(CO)ccc1-c1cc2c(N[C@H](C)c3ccccc3)ncnc2s1,1

# Molecular target: Protein kinase C alpha type (Homo sapiens) (UniProt P17252)
# Assay: Inhibition of PRKCA (unknown origin) at 500 nM
row,Structure (SMILES),inhibition [%]
1,COc1cc(CO)ccc1-c1cc2c(Nc3ccc(F)c(Cl)c3)ncnc2s1,2

# Molecular target: Protein kinase C beta type (Homo sapiens) (UniProt P05771)
# Assay: Inhibition of PRKCB1 (unknown origin) at 500 nM
row,Structure (SMILES),inhibition [%]
1,C#Cc1cccc(Nc2ncnc3cc(OCCOC)c(OCCOC)cc23)c1 [ERLOTINIB],-2
2,COc1cc(CO)ccc1-c1cc2c(Nc3ccc(F)c(Cl)c3)ncnc2s1,-2
3,COc1cc(CO)ccc1-c1cc2c(N[C@H](CO)c3ccccc3)ncnc2s1,4
4,COc1cc(CO)ccc1-c1cc2c(N[C@H](C)c3ccccc3)ncnc2s1,1

# Molecular target: Focal adhesion kinase 1 (Homo sapiens) (UniProt Q05397)
# Assay: Inhibition of PTK2 (unknown origin) at 500 nM
# Focal adhesion kinase 1 (Homo sapiens), sequence (Q05397 2-1052 limits assumed): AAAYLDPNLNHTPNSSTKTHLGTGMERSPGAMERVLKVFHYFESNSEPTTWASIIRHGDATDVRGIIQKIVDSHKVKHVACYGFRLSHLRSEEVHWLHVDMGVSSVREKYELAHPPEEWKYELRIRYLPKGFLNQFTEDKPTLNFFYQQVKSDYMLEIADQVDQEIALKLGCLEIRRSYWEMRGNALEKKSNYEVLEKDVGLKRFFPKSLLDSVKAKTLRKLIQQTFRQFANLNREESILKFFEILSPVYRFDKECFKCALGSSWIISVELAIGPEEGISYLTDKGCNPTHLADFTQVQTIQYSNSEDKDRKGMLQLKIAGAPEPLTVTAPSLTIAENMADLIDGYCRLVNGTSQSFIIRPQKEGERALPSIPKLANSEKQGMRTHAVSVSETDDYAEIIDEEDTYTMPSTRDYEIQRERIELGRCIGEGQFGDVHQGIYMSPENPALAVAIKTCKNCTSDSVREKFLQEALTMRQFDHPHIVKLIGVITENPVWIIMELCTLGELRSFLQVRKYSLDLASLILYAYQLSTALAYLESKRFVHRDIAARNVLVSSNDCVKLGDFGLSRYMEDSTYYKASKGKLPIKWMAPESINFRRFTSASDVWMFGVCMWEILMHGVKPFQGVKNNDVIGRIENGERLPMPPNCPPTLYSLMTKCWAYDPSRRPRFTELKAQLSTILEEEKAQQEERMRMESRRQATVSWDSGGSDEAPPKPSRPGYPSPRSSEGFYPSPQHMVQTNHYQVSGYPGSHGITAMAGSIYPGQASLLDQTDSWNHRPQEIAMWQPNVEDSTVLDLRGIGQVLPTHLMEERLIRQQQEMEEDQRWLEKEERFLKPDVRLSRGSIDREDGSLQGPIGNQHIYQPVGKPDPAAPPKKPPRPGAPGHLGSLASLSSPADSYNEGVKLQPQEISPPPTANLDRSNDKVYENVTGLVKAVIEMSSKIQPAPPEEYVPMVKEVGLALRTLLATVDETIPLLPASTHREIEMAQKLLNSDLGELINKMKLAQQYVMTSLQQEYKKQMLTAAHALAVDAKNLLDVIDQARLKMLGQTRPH
row,Structure (SMILES),inhibition [%]
1,C#Cc1cccc(Nc2ncnc3cc(OCCOC)c(OCCOC)cc23)c1 [ERLOTINIB],-3
2,COc1cc(CO)ccc1-c1cc2c(Nc3ccc(F)c(Cl)c3)ncnc2s1,16
3,COc1cc(CO)ccc1-c1cc2c(N[C@H](CO)c3ccccc3)ncnc2s1,1
4,COc1cc(CO)ccc1-c1cc2c(N[C@H](C)c3ccccc3)ncnc2s1,6

# Molecular target: Proto-oncogene tyrosine-protein kinase receptor Ret (Homo sapiens) (UniProt P07949)
# Assay: Inhibition of RET (unknown origin) at 500 nM
row,Structure (SMILES),inhibition [%]
1,C#Cc1cccc(Nc2ncnc3cc(OCCOC)c(OCCOC)cc23)c1 [ERLOTINIB],64
2,COc1cc(CO)ccc1-c1cc2c(Nc3ccc(F)c(Cl)c3)ncnc2s1,16
3,COc1cc(CO)ccc1-c1cc2c(N[C@H](CO)c3ccccc3)ncnc2s1,9
4,COc1cc(CO)ccc1-c1cc2c(N[C@H](C)c3ccccc3)ncnc2s1,5

# Molecular target: Proto-oncogene tyrosine-protein kinase Src (Homo sapiens) (UniProt P12931)
# Assay: Inhibition of SRC (unknown origin) at 500 nM
# Proto-oncogene tyrosine-protein kinase Src (Homo sapiens), sequence (P12931 2-536 limits assumed): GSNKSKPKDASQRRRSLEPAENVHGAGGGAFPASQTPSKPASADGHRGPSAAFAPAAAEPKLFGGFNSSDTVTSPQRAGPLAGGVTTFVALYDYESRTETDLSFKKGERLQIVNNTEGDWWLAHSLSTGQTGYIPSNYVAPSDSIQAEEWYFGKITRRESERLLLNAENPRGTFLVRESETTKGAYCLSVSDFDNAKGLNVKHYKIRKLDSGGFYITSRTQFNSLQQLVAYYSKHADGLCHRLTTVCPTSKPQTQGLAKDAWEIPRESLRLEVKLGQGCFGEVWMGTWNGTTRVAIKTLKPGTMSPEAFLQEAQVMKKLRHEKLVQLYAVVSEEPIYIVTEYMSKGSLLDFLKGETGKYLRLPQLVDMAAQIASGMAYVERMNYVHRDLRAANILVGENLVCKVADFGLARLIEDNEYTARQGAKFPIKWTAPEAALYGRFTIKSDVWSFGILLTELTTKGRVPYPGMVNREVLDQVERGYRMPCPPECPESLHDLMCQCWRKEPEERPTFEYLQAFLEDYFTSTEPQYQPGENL
row,Structure (SMILES),inhibition [%]
1,C#Cc1cccc(Nc2ncnc3cc(OCCOC)c(OCCOC)cc23)c1 [ERLOTINIB],42
2,COc1cc(CO)ccc1-c1cc2c(Nc3ccc(F)c(Cl)c3)ncnc2s1,14
3,COc1cc(CO)ccc1-c1cc2c(N[C@H](CO)c3ccccc3)ncnc2s1,9
4,COc1cc(CO)ccc1-c1cc2c(N[C@H](C)c3ccccc3)ncnc2s1,10

# Molecular target: Tyrosine-protein kinase Yes (Homo sapiens) (UniProt P07947)
# Assay: Inhibition of YES1 (unknown origin) at 500 nM
# Tyrosine-protein kinase Yes (Homo sapiens), sequence (P07947 2-543 limits assumed): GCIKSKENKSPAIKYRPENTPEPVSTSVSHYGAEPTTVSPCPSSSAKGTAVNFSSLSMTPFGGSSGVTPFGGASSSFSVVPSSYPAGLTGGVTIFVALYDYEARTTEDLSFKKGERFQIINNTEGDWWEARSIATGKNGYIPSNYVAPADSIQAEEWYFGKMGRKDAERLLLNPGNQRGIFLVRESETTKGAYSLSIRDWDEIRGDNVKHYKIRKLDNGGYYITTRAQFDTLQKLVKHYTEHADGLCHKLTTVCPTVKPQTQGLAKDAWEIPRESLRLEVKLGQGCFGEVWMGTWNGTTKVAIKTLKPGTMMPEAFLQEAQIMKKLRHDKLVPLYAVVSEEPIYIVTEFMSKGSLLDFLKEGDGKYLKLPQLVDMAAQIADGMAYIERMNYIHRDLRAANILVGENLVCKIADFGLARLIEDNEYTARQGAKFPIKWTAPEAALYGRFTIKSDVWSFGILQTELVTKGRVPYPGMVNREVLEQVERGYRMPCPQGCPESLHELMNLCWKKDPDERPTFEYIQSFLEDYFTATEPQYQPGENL
row,Structure (SMILES),inhibition [%]
1,COc1cc(CO)ccc1-c1cc2c(Nc3ccc(F)c(Cl)c3)ncnc2s1,14
2,COc1cc(CO)ccc1-c1cc2c(N[C@H](CO)c3ccccc3)ncnc2s1,37
3,COc1cc(CO)ccc1-c1cc2c(N[C@H](C)c3ccccc3)ncnc2s1,12
